Numbers after ± are expanded uncertainties.
Key:
[1] = 100 kPa, Liquid; for viscosity: Falling or rolling sphere viscometry; for mass density: Vibrating tube method
[2] = xn = mol fraction of the nth substance listed; settings: 100 kPa, Liquid, x1 = 1; for viscosity: Falling or rolling sphere viscometry; for mass density: Vibrating tube method

CCCCCCCO [heptan-1-ol]
[1]
Settings | mass density [kg/m3] | viscosity [mPa·s]
293.15 K | 822.3 ± 0.3 | 7.15 ± 0.07
298.15 K | 818.8 ± 0.3 | 6.07 ± 0.06
303.15 K | 815.3 ± 0.3 | 5.18 ± 0.05
308.15 K | 811.8 ± 0.3 | 4.44 ± 0.04
313.15 K | 808.2 ± 0.3 | 3.83 ± 0.04
318.15 K | 804.6 ± 0.3 | 3.33 ± 0.04
323.15 K | 801 ± 0.3 | 2.89 ± 0.03
328.15 K | 797.4 ± 0.3 | 2.54 ± 0.03

CCO [ethanol] + CCCCCCCO
[2]
Settings | mass density [kg/m3] | viscosity [mPa·s]
293.15 K | 790.1 ± 0.2 | 1.15 ± 0.02
298.15 K | 785.9 ± 0.2 | 1.07 ± 0.02
303.15 K | 781.6 ± 0.2 | 0.97 ± 0.02
308.15 K | 777.2 ± 0.2 | 0.89 ± 0.02
313.15 K | 772.9 ± 0.2 | 0.81 ± 0.02
318.15 K | 768.4 ± 0.2 | 0.76 ± 0.02
323.15 K | 764 ± 0.2 | 0.68 ± 0.02
328.15 K | 759.4 ± 0.2 | 0.63 ± 0.02

CCCCCCO [hexan-1-ol]
[1]
Settings | mass density [kg/m3] | viscosity [mPa·s]
293.15 K | 818.9 ± 0.3 | 5.35 ± 0.05
298.15 K | 815.3 ± 0.3 | 4.56 ± 0.04
303.15 K | 811.7 ± 0.3 | 3.9 ± 0.04
308.15 K | 808.1 ± 0.3 | 3.36 ± 0.04
313.15 K | 804.5 ± 0.3 | 2.91 ± 0.03
318.15 K | 800.8 ± 0.3 | 2.54 ± 0.03
323.15 K | 797.1 ± 0.3 | 2.23 ± 0.03
328.15 K | 793.4 ± 0.3 | 1.97 ± 0.03

CCO [ethanol]
[1]
Settings | mass density [kg/m3] | viscosity [mPa·s]
293.15 K | 790.1 ± 0.2 | 1.15 ± 0.02
298.15 K | 785.9 ± 0.2 | 1.07 ± 0.02
303.15 K | 781.6 ± 0.2 | 0.97 ± 0.02
308.15 K | 777.2 ± 0.2 | 0.89 ± 0.02
313.15 K | 772.9 ± 0.2 | 0.81 ± 0.02
318.15 K | 768.4 ± 0.2 | 0.76 ± 0.02
323.15 K | 764 ± 0.2 | 0.68 ± 0.02
328.15 K | 759.4 ± 0.2 | 0.63 ± 0.02

CCO [ethanol] + CCCCCCO
[2]
Settings | mass density [kg/m3] | viscosity [mPa·s]
293.15 K | 790.1 ± 0.2 | 1.15 ± 0.02
298.15 K | 785.9 ± 0.2 | 1.07 ± 0.02
303.15 K | 781.6 ± 0.2 | 0.97 ± 0.02
308.15 K | 777.2 ± 0.2 | 0.89 ± 0.02
313.15 K | 772.9 ± 0.2 | 0.81 ± 0.02
318.15 K | 768.4 ± 0.2 | 0.76 ± 0.02
323.15 K | 764 ± 0.2 | 0.68 ± 0.02
328.15 K | 759.4 ± 0.2 | 0.63 ± 0.02

Reference: the NIST ThermoML archive (doi:10.1021/je501133u)
